Measurements: patent US10189782B2, “Derivatives of indole for the treatment of cancer, viral infections and lung diseases” (BIOKINESIS, priority 2012, dated 2019)
Like-named read-outs stand apart in the source and are kept apart here.

Key:
K562 cells = experiment: Cytotoxicity on human cancer cells (WST-1), K562; assay type: cell-based; details: WST-1 on D4, read-out: K562 IC50
How it was run: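 Cancer cell lines plated at 500–5,000 cells/well, exposed to compound from D0 under light protection at 37 °C, 5% CO2. On D4, WST-1 added for 30 min to 4 h; absorbance at 450 nm (reference 620 nm). IC50 taken as concentration killing 50% of cells.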

MIA-PaCa-2 = experiment: Cytotoxicity on human cancer cells (WST-1), MIA-PaCa-2; assay type: cell-based; details: MIA-PaCa-2 pancreatic cancer cells, WST-1 on D4
Description: (§1) Evaluation of Cytotoxicity Effects on Human Cancer Cells
(§2) The effects of the compounds of the invention on the viability of human cancer cells were studied on various human cancer cell lines of differing tissue origins (A549, NCI-H460: lung cancer; MDA-MB-231: breast cancer; HCT-116, HT-29: colon cancer; MIA-PaCa-2: pancreatic cancer; K562: leukaemia). All cell lines were obtained from ATCC or ECACC. Cells were cultured in the culture media described below, under a 37° C., 5% CO2 humidified atmosphere, according to a standard operating procedure.
(§3) On D0, the cells were plated in 90 μl in 96 wells plates at densities ranging from 500 to 5,000 cells per well.
(§4) Following addition of the test substance the cells were protected from light. The solvents (DMSO and specific control solvent were added at the maximal concentration: 10 μl/well (3 wells/condition)).
(§5) On D4, the Cell Proliferation Reagent WST-1 was added to each well (10 μl/well), according to a standard operating procedure. The cells were then incubated for 30 min to 4 h at 37° C.-5% CO2. After these incubations, the 96-well plates were shaken thoroughly for 1 min with Multiskan® EX apparatus (Thermo Labsystems, France). The absorbence was measured at 450 nm, the reference wavelength being 620 nm. The analysis of the results was performed with the Ascent software 2.6 (Thermo Labsystems, France), Microsoft Excel 2003 and GraphPad Prism 4.03 softwares to give the concentration of the compounds that induces the death of 50% of the cells (IC50).

NCI-H460 = experiment: Cytotoxicity on human cancer cells (WST-1), NCI-H460; assay type: cell-based; details: NCI-H460 lung cancer cells, WST-1 on D4, read-out: IC50 (μM) NCIH460
Description: as §1, §2
NCI-H460: RPMI 1640+10% FBS+10 mM HEPES+1 mM Sodium pyruvate+2.5 g/l glucose
as §3, §4
(§6) On D4, the Cell Proliferation Reagent WST-1 was added to each well (10 μl/well), according to a standard operating procedure. The cells were then incubated for 30 min to 4 h at 37° C.-5% CO2. After these incubations, the 96-well plates were shaken thoroughly for 1 min with Multiskan® EX apparatus (Thermo Labsystems, France). The absorbence was measured at 450 nm, the reference wavelength being 620 nm. […]

[1] = target: T1, Human recombinant MKlp2 motor domain1-519, His tagged (Homo sapiens, UniProt O95235); experiment: Microtubule stimulated ATPase activity of the MKlp2 motor domain (Kinesin ELIPA Assay Kit); assay type: biochemical; details: read-out: MKIp2 IC50
T1 construct: Human recombinant MKlp2 motor domain1-519, His tagged; His; purchased Cytoskeleton MP05
T1 sequence (O95235 1-519): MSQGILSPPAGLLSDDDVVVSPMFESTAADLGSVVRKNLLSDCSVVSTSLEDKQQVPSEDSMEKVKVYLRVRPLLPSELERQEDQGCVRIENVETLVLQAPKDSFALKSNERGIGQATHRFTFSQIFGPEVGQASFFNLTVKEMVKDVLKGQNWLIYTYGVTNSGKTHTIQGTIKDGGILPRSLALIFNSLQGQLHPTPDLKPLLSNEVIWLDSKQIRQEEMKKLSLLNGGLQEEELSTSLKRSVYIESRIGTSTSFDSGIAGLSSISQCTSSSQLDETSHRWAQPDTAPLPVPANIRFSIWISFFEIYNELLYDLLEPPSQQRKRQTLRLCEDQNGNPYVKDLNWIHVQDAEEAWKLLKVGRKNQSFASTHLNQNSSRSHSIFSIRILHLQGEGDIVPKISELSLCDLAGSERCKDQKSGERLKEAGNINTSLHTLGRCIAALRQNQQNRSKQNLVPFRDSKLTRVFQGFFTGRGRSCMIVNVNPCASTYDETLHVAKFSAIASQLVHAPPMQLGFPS
How it was run: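 Microtubule-stimulated ATPase at 22° C, with free phosphate followed in real time by MESG/PNP coupled absorbance at 360 nm. Motor mix in Pipes-NaOH pH 7.0, MgCl2, 30 μM Tx with porcine brain microtubules; reaction started with 5 mM ATP stock at 20% of volume. Kinetic read: 21 readings, 30 s apart.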

MDA-MB-231 = experiment: Cytotoxicity on human cancer cells (WST-1), MDA-MB-231; assay type: cell-based; details: MDA-MB-231 breast cancer cells, WST-1 on D4
Description: as §1, §2, §3, §4, §5

HCT-116 = experiment: Cytotoxicity on human cancer cells (WST-1), HCT-116; assay type: cell-based; details: HCT-116 colon cancer cells, WST-1 on D4
Description: as §1, §2
HCT-116: Mc Coy's 5a+10% FBS+0.5 mM Ultraglutamine
as §3, §4, §6

[2] = test system: human large lung carcinoma NCI-H460 xenografts; experiment: Anti-tumor activity in nude mice bearing subcutaneous human large cell lung carcinoma NCI-H460 xenografts; assay type: in vivo
Description: In-Vivo Evaluation of Anti-Tumor Activity of Compound 38 in Nude Mice Bearing Subcutaneous Human Large Cell Lung Carcinoma NCI-11460 Xenografts Protocol:
The effects of one compound of the invention were studied on the tumor growth of human cancer cells in nude mice. The human large lung carcinoma NCI-H460 cell line was obtained from ATCC. The induction in nude mice was realized by subcutaneous injection in the right flank of each mouse with 5×10^6 NCI-H460 cells in 200 μl serum-free medium. When the tumor volume reached 80 mm^3, mice were randomized in 2 groups (10 mice/group).
Mice of group 1 were treated by intraperitoneal injection of vehicle (solutol HS15 at 38% in NaCl 0.9%) according to the treatment schedule 1Q1Dx17.
Mice of group 2 were treated by intraperitoneal injection of compound 38 (diluted in solutol HS15 at 38% in NaCl 0.9%) at 37.5 mg/kg according to the treatment schedule 1Q1Dx17.
The tumor volume was recorded twice a week until the end of the experiment.

[3] = test system: human colon carcinoma HCT-116 xenografts; experiment: Anti-tumor activity in nude mice bearing subcutaneous human colon carcinoma HCT-116 xenografts; assay type: in vivo
Description: The effects of one compound of the invention were studied on the tumor growth of human cancer cells in nude mice. […] The induction in nude mice was realized by subcutaneous injection in the right flank of each mouse of 10×10^6 HCT-116 cells in 200 μl serum-free medium. When the tumor volume reached 130 mm^3, mice were randomized in to 3 groups (10 mice/group).
Mice of group 2 were treated by intraperitoneal injection of cisplatin (diluted in NaCl 0.9%) at 4 mg/kg according to the treatment schedule 1Q3Dx3.
The body weight and tumor volume of mice were recorded twice a week until the end of the experiment.

HT-29 = experiment: Cytotoxicity on human cancer cells (WST-1), HT-29; assay type: cell-based; details: HT-29 colon cancer cells, WST-1 on D4
Description: as §1, §2
HT-29: Mc Coy's 5a+10% FBS+0.5 mM Ultraglutamine
as §3, §4, §6

A549 = experiment: Cytotoxicity on human cancer cells (WST-1), A549; assay type: cell-based; details: A549 lung cancer cells, WST-1 on D4
Description: as §1, §2, §3, §4, §6

[4] = Stability studies in human plasma; assay type: in vitro ADME; details: for Remaining compound 63 (%) (mean ± SEM, n = 2): Human plasma, 2 μM, 37° C.
Description: (§7) Stability Studies in Mouse or Human Plasma The study was to evaluate the stability of the disclosed compounds after incubation in mouse or human plasma and to measure the metabolites formed. For the disclosed compound, a stock solution was prepared at 200 μM in DMSO. This solution was then 100-fold diluted in 1 ml of mouse or human plasma in order to obtain the required concentration of 2 μM. One aliquot of 100 μl was taken (TO) and the remaining solution was incubated at 37° C. in water bath for 60 min, 120 min and 240 min. At the end of each incubation time 100 μl of plasma was taken, 100 μl of acetonitrile containing 0.1% of formic acid were added to each aliquot in order to stop the enzymatic reaction and to precipitate the proteins. Samples was vortexed/mixed and centrifuged 5 min at 16434.6 g (=14000 rpm) (4° C.). After centrifugation, the clear supernatant (at least 150 μl) was transferred into 1.2 ml HPLC glass vials and sealed. Samples were placed into the refrigerated autosampler and 20 μl were injected into a HPLC-MS/MS. The results are expressed with the percentage of test substance remaining by comparing area under specific chromatographic peak of test samples after incubation with area under specific chromatographic peak at TO (Tables 7 and 8 and FIGS. 1 and 2).

[5] = Stability studies in mouse plasma; assay type: in vitro ADME; details: for Remaining compound 63 (%) (mean ± SEM, n = 2): Mouse plasma, 2 μM, 37° C.
Description: as §7

[6] = NCI-H460 xenograft nude mice, i.p. 37.5 mg/kg 1Q1Dx17, starting MBW 21 g
[7] = HCT-116 xenograft nude mice, i.p., Cisplatin 4 mg/kg, Cpd 38 37.5 mg/kg, starting MBW 21 g

Compound: COc1ccncc1/C=C(\C#N)c1c[nH]c2ccc(Br)cc12 [Example 5, (Z)-2-(5-bromo-1H-indol-3-yl)-3-(4-methoxypyridin-3-yl)acrylonitrile]
- IC50 (K562 cells; Table 4, K562 leukaemia cells): 800 nM
- IC50 (MIA-PaCa-2): 0.7 µM
- IC50 (NCI-H460): 0.9 µM
- IC50 ([1]; Table 3, 22° C.): 50 nM
- IC50 (MDA-MB-231): 1.7 µM
- IC50 (HCT-116): 0.7 µM

Compound: COc1ccc(C#N)cc1/C=C(\C#N)c1c[nH]c2ccc(Br)cc12 [Example 38, (Z)-3-(2-(5-bromo-1H-indol-3-yl)-2-cyanovinyl)-4-methoxybenzonitrile]
- IC50 (K562 cells; Table 4, K562 leukaemia cells): 30 nM
- IC50 (MIA-PaCa-2): 0.04 µM
- IC50 (NCI-H460): 0.04 µM
- Antitumor activity (tumor volume, FIG. 4) ([2]; NCI-H460 xenograft bearing nude mice, 37.5 mg/kg i.p.): Antitumor activity was observed
- MBWC D 0-D 3 (mean body weight change) [2, 6]: -0.96 g
- MBWC D 0-D 4 (mean body weight change) [2, 6]: -1.76 g
- MBWC D 0-D 7 (mean body weight change) [2, 6]: -1.82 g
- MBWC D 0-D 10 (mean body weight change) [2, 6]: -2.12 g
- MBWC D 0-D 14 (mean body weight change) [2, 6]: -1.83 g
- MBWC D 0-D 17 (mean body weight change) [2, 6]: -1.55 g
- Tolerability of treatment ([2]; nude mice bearing NCI-H460 xenograft, 37.5 mg/kg i.p.): well tolerated
- IC50 ([1]; Table 3, 22° C.): 200 nM
- Antitumor activity (tumor volume, FIG. 3) ([3]; HCT-116 xenograft bearing nude mice, i.p., cisplatin 4 mg/kg, compound 38 37.5 mg/kg): Antitumor activity was observed
- MBWC D 0-D 4 (mean body weight change) [3, 7]: -1.04 g
- MBWC D 0-D 7 (mean body weight change) [3, 7]: -0.76 g
- MBWC D 0-D 10 (mean body weight change) [3, 7]: -1.08 g
- MBWC D 0-D 14 (mean body weight change) [3, 7]: -1.57 g
- MBWC D 0-D 17 (mean body weight change) [3, 7]: -1.58 g
- MBWC D 0-D 21 (mean body weight change) [3, 7]: -1.43 g
- MBWC D 0-D 24 (mean body weight change) [3, 7]: -1.83 g
- MBWC D 0-D 28 (mean body weight change) [3, 7]: -2.54 g
- Tolerability of treatment ([3]; mouse, in vivo, ip, 37.5 mg/kg): well tolerated
- IC50 (MDA-MB-231): 0.07 µM
- IC50 (HCT-116): 0.06 µM

Compound: CN(C)c1ccc(C#N)cc1/C=C(\C#N)c1c[nH]c2ccc(Br)cc12 [Example 39, (Z)-3-(2-(5-bromo-1H-indol-3-yl)-2-cyanovinyl)-4-(dimethylamino)benzonitrile]
- IC50 (K562 cells; Table 4, K562 leukaemia cells): 600 nM
- IC50 (MIA-PaCa-2): 0.2 µM
- IC50 (HT-29): 0.3 µM
- IC50 (A549): 0.5 µM
- IC50 ([1]; Table 3, 22° C.): 200 nM
- IC50 (MDA-MB-231): 0.3 µM

Compound: COc1ccc(C#N)cc1/C=C(\C#N)c1cn(C(=O)CN(C)C)c2ccc(Br)cc12 [Example 63]
- IC50 (K562 cells; Table 6 (prodrugs, formula II), K562 cells): 40 nM
- Remaining compound 63 (%) (mean ± SEM, n = 2) ([4]; incubation time 0 min): 100.0 ± 0.0%
- Remaining compound 63 (%) (mean ± SEM, n = 2) ([4]; incubation time 60 min): 49.2 ± 5.1%
- Remaining compound 63 (%) (mean ± SEM, n = 2) ([4]; incubation time 120 min): 27.2 ± 5.4%
- Remaining compound 63 (%) (mean ± SEM, n = 2) ([4]; incubation time 240 min): 21.2 ± 11.2%
- half-life at 2 μM ([4]; human, plasma): ~60 min
- IC50 ([1]; Table 6 (prodrugs, formula II)): 10600 nM
- Remaining compound 63 (%) (mean ± SEM, n = 2) ([5]; incubation time 0 min): 100.0 ± 0.0%
- Remaining compound 63 (%) (mean ± SEM, n = 2) ([5]; incubation time 60 min): 9.0 ± 0.8%
- Remaining compound 63 (%) (mean ± SEM, n = 2) ([5]; incubation time 120 min): 10.7 ± 8.7%
- Remaining compound 63 (%) (mean ± SEM, n = 2) ([5]; incubation time 240 min): 4.9 ± 0.5%
- half-life at 2 μM ([5]; mouse, plasma): ~33 min
